Some test systems named below: UACC-257 melanoma; SK-MEL-28 melanoma; COLO 205 colon; A498 renal; KM12 colon; SN12C renal; OVCAR-8 ovarian; MOLT-4 leukemia; HL-60(TB) leukemia; PC-3 prostate; K-562 leukemia; U251 CNS; NCI-H226 lung; SF-295 CNS; M14 melanoma; LOX IMVI melanoma; MALME-3M melanoma; NCI/ADR-RES ovarian; UACC-62 melanoma.
What all share (assay): inhibition of tumour cell growth, NCI panel, 48 h

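Exposure lasted 48 hours, with cells grown in 96-well plates and compounds tested at five concentrations. TGI is the concentration that stops growth completely.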 Bounds are passed on as bounds.

As for `COC(=O)CCC(C)[C@H]1CCC2C3C(C[C@H](OC(C)=O)[C@@]21C)[C@@]1(C)CCC2(C[C@H]1C[C@H]3OC(C)=O)OOC1(CCCC1)OO2` (stereo partly specified), the TGI in the test on UACC-257 melanoma, in the test on SK-MEL-28 melanoma, in the test with COLO 205 colon, in the test on A498 renal, with KM12 colon and with SN12C renal was above 100 µM each time. For the same compound, the TGI in the test on OVCAR-8 ovarian is above 100 µM; in the test on MOLT-4 leukemia it was above 100 µM; with HL-60(TB) leukemia, 54.3 µM; with PC-3 prostate it was above 100 µM; with K-562 leukemia, above 100 µM; in the test on U251 CNS, above 100 µM. The TGI in the test with NCI-H226 lung, in the test with SF-295 CNS, with M14 melanoma, with LOX IMVI melanoma, with MALME-3M melanoma and in the test with NCI/ADR-RES ovarian was above 100 µM each time.

On to `NC(=O)C(=O)c1ncn(Cc2ccccc2)c1N`, for which the TGI with UACC-257 melanoma, in the test on SK-MEL-28 melanoma, in the test with COLO 205 colon, in the test on A498 renal, in the test with KM12 colon and in the test with SN12C renal was above 100 µM each time. In addition, the TGI with OVCAR-8 ovarian, in the test with HL-60(TB) leukemia, in the test on PC-3 prostate, in the test on K-562 leukemia, in the test on U251 CNS and in the test on UACC-62 melanoma was above 100 µM in each case. Further, the TGI with NCI-H226 lung, in the test with SF-295 CNS, with M14 melanoma, with LOX IMVI melanoma, with MALME-3M melanoma and in the test on NCI/ADR-RES ovarian was above 100 µM in each case.

As to `O=C1C(C(O)(C(F)(F)Cl)C(F)(F)Cl)CCCC1C(O)(C(F)(F)Cl)C(F)(F)Cl` (stereo unspecified), the TGI in the test on UACC-257 melanoma, in the test with SK-MEL-28 melanoma, with COLO 205 colon, in the test on A498 renal, in the test on KM12 colon and in the test on OVCAR-8 ovarian was above 10 µM throughout. Also, the TGI in the test with PC-3 prostate, in the test on U251 CNS, in the test with UACC-62 melanoma, in the test with NCI-H226 lung, with SF-295 CNS and in the test on M14 melanoma was above 10 µM each time. Further, the TGI with LOX IMVI melanoma, with MALME-3M melanoma and in the test with NCI/ADR-RES ovarian was above 10 µM throughout.

As for `c1ccc2c(CN3CCN(Cc4c[nH]c5ccccc45)CC3)c[nH]c2c1`, the TGI in the test with UACC-257 melanoma stood at 27.5 µM; in the test on SK-MEL-28 melanoma, 36.9 µM; in the test with COLO 205 colon, 20.8 µM; in the test with A498 renal it was 27.8 µM; in the test on KM12 colon it was 33.1 µM; with SN12C renal, 41.9 µM. Besides, the TGI stood at 37.6 µM with OVCAR-8 ovarian; 39.3 µM in the test with HL-60(TB) leukemia; 43.7 µM in the test with PC-3 prostate; 39.7 µM in the test with K-562 leukemia; 29.3 µM in the test on U251 CNS; 29.9 µM in the test with UACC-62 melanoma. Moreover, the TGI amounted to 37.7 µM in the test with NCI-H226 lung; 31.1 µM in the test with SF-295 CNS; 29.1 µM in the test on M14 melanoma; 30.6 µM with LOX IMVI melanoma; 29.5 µM in the test on MALME-3M melanoma; 58 µM in the test on NCI/ADR-RES ovarian.

Turning to `O=C(O)CSC(CC1(c2ccc(Cl)cc2)NC(=O)CS1)c1ccc(Cl)cc1` (stereo unspecified), the TGI in the test with UACC-257 melanoma, in the test with COLO 205 colon, in the test on A498 renal, with KM12 colon, in the test on SN12C renal and in the test on OVCAR-8 ovarian was above 100 µM in each case. For the same compound, the TGI in the test with MOLT-4 leukemia, in the test with HL-60(TB) leukemia, with PC-3 prostate, with K-562 leukemia, in the test on U251 CNS and in the test on UACC-62 melanoma was above 100 µM throughout. The TGI with SF-295 CNS, with M14 melanoma, with LOX IMVI melanoma and in the test on NCI/ADR-RES ovarian was above 100 µM in each case.

Take `COc1cc(C(=O)/C=C/c2ccc(OCCSCCCCCCCCCCSCCOc3ccc(/C=C/C(=O)c4cc(OC)c(OC)c(OC)c4)cc3)cc2)cc(OC)c1OC`: the TGI with SK-MEL-28 melanoma, with COLO 205 colon, in the test with A498 renal, in the test on KM12 colon, in the test with SN12C renal and in the test on OVCAR-8 ovarian was above 100 µM each time. Also, the TGI with MOLT-4 leukemia, with HL-60(TB) leukemia, with PC-3 prostate, in the test on K-562 leukemia, in the test with U251 CNS and in the test with UACC-62 melanoma was above 100 µM in each case. The TGI with SF-295 CNS, in the test with M14 melanoma, in the test with LOX IMVI melanoma, with MALME-3M melanoma and in the test with NCI/ADR-RES ovarian was above 100 µM in each case.

For `CCOP(=O)(C=C=C1CCC2[C@@H]3CCc4cc(OC)ccc4C3CC[C@]12C)OCC` (stereo partly specified), the TGI in the test on UACC-257 melanoma was 19.6 µM; in the test on SK-MEL-28 melanoma, 23.9 µM; with COLO 205 colon it was 22.7 µM; with A498 renal, 25.9 µM; with KM12 colon, 26.2 µM; in the test on SN12C renal, 23 µM. The TGI was found to be 29.3 µM with OVCAR-8 ovarian; 2.87 µM in the test with HL-60(TB) leukemia; 15 µM in the test on PC-3 prostate; 10.7 µM with K-562 leukemia; 25.5 µM in the test with U251 CNS; 18.2 µM with UACC-62 melanoma. The TGI in the test with NCI-H226 lung came out at 21.6 µM; in the test on SF-295 CNS, 19.7 µM; in the test with M14 melanoma, 24.3 µM; in the test with LOX IMVI melanoma it was 24.8 µM; in the test with MALME-3M melanoma, 30.3 µM; with NCI/ADR-RES ovarian it was 24.2 µM.

Regarding `c1cnn(C23C4C5C6C4C2C6C53)c1` (stereo unspecified), the TGI with UACC-257 melanoma, with SK-MEL-28 melanoma, with COLO 205 colon, in the test with A498 renal, with KM12 colon and in the test on SN12C renal was above 100 µM in each case. Further, the TGI with OVCAR-8 ovarian, in the test with MOLT-4 leukemia, in the test on HL-60(TB) leukemia, in the test on PC-3 prostate, with K-562 leukemia and in the test on U251 CNS was above 100 µM each time. The TGI in the test with NCI-H226 lung, in the test on SF-295 CNS, with LOX IMVI melanoma and in the test on NCI/ADR-RES ovarian was above 100 µM each time.

These data come from PubChem BioAssay (NCI).
